Results as given in ChEMBL document CHEMBL1201862, “PubChem BioAssay data set” (2004).
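Tested at 5 concentrations; 48 h exposure; 96-well plates; endpoints linearly interpolated, else capped at highest concentration. GI50 marks 50% less growth.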 The source made the active and inactive calls. Rule as the data show it: active = GI50 up to about 1.1 µM and inactive = higher.

Tests used:
Test in all cases: NCI-60 cell line screen, 48 h
SR = test system: SR
HCT-116 = test system: HCT-116
OVCAR-5 = test system: OVCAR-5
SK-OV-3 = test system: SK-OV-3
EKVX = test system: EKVX
K562 = test system: K562
SW-620 = test system: SW-620
OVCAR-3 = test system: OVCAR-3
SNB-75 = test system: SNB-75
OVCAR-8 = test system: OVCAR-8
COLO 205 = test system: COLO 205
SF-268 = test system: SF-268
SF-295 = test system: SF-295
786-0 = test system: 786-0
IGROV-1 = test system: IGROV-1
HT-29 = test system: HT-29
HOP-92 = test system: HOP-92
KM12 = test system: KM12
UO-31 = test system: UO-31

Measured: GI50

O=C(O/N=C1/CCC/C1=C\c1ccccc1)c1ccccc1
inactive: SR 44.4 µM | HCT-116 > 100 µM | OVCAR-5 > 100 µM | SK-OV-3 > 100 µM | EKVX 29.8 µM | K562 38.7 µM | SW-620 > 100 µM | OVCAR-3 > 100 µM | SNB-75 47.5 µM | OVCAR-8 88.7 µM | COLO 205 > 100 µM | SF-268 38.7 µM | SF-295 > 100 µM | 786-0 > 100 µM | IGROV-1 > 100 µM | HT-29 40.7 µM | HOP-92 > 100 µM | KM12 > 100 µM

CCC12CCCN(Cc3ccccc3)C1c1c(n(C)c3ccccc13)CC2 (stereo unspecified)
inactive: SR 108 µM | HCT-116 141 µM | SK-OV-3 > 253 µM | EKVX > 253 µM | K562 163 µM | SW-620 178 µM | OVCAR-3 60.8 µM | OVCAR-8 > 253 µM | COLO 205 164 µM | SF-268 199 µM | SF-295 117 µM | 786-0 > 253 µM | IGROV-1 159 µM | HT-29 167 µM | HOP-92 110 µM | KM12 86.1 µM

CN(C)C(=S)N=C(Nc1ccccc1)Nc1ccccc1
inactive: SR > 100 µM | HCT-116 > 100 µM | OVCAR-5 > 100 µM | SK-OV-3 > 100 µM | EKVX > 100 µM | K562 > 100 µM | SW-620 > 100 µM | OVCAR-3 > 100 µM | SNB-75 91 µM | OVCAR-8 > 100 µM | COLO 205 > 100 µM | SF-268 > 100 µM | SF-295 > 100 µM | 786-0 > 100 µM | UO-31 > 100 µM | IGROV-1 > 100 µM | HT-29 > 100 µM | HOP-92 > 100 µM | KM12 > 100 µM

CC(C)CC(NC(=O)C(CCI)Cc1ccccc1)C(=O)Nc1ccccc1 (stereo unspecified)
inactive: SR 22.8 µM | HCT-116 43.4 µM | OVCAR-5 > 100 µM | SK-OV-3 > 100 µM | EKVX 42 µM | K562 44.6 µM | SW-620 49.8 µM | OVCAR-3 > 100 µM | SNB-75 93.8 µM | OVCAR-8 49.5 µM | COLO 205 95.9 µM | SF-295 > 100 µM | 786-0 > 100 µM | UO-31 22.1 µM | IGROV-1 51.1 µM | HOP-92 > 100 µM | KM12 37.5 µM

CCCCCCCCCCCCCCCCCc1nc(C#N)c(N)o1
inactive: SR 7.89 µM | HCT-116 > 100 µM | OVCAR-5 73.1 µM | SK-OV-3 > 100 µM | EKVX > 100 µM | K562 22.7 µM | SW-620 > 100 µM | SNB-75 21.4 µM | OVCAR-8 13.8 µM | SF-268 33.2 µM | 786-0 23.3 µM | IGROV-1 12.1 µM | HT-29 > 100 µM | HOP-92 74.5 µM | KM12 23.5 µM

CCc1nnc(CC)n1NCCCC(=O)O
inactive: SR > 100 µM | HCT-116 > 100 µM | OVCAR-5 > 100 µM | SK-OV-3 > 100 µM | EKVX > 100 µM | K562 > 100 µM | SW-620 > 100 µM | OVCAR-3 > 100 µM | SNB-75 > 100 µM | OVCAR-8 > 100 µM | COLO 205 > 100 µM | SF-268 > 100 µM | SF-295 > 100 µM | 786-0 > 100 µM | UO-31 > 100 µM | IGROV-1 > 100 µM | HT-29 > 100 µM | HOP-92 > 100 µM | KM12 > 100 µM

C=C(Cl)C(=C)CCC(Cl)C(C)C (stereo unspecified)
inactive: SR > 100 µM | HCT-116 > 100 µM | OVCAR-5 > 100 µM | SK-OV-3 > 100 µM | EKVX > 100 µM | K562 > 100 µM | SW-620 > 100 µM | OVCAR-3 > 100 µM | COLO 205 > 100 µM | SF-268 > 100 µM | SF-295 > 100 µM | 786-0 > 100 µM | UO-31 > 100 µM | IGROV-1 > 100 µM | HT-29 > 100 µM | HOP-92 > 100 µM | KM12 > 100 µM

COc1ccc(C(=O)O)c(Cc2cccc3ccccc23)c1
inactive: SR > 100 µM | HCT-116 > 100 µM | OVCAR-5 > 100 µM | SK-OV-3 > 100 µM | EKVX > 100 µM | K562 81.8 µM | SW-620 > 100 µM | OVCAR-3 64.3 µM | SNB-75 > 100 µM | OVCAR-8 > 100 µM | COLO 205 > 100 µM | SF-268 > 100 µM | SF-295 > 100 µM | 786-0 > 100 µM | UO-31 > 100 µM | IGROV-1 > 100 µM | HT-29 > 100 µM | KM12 > 100 µM

C#CCN(Cc1ccc2nc(-c3ccccc3)c(Cl)nc2c1)c1ccc(Cl)c(Cl)c1
inactive: SR > 100 µM | HCT-116 > 100 µM | OVCAR-5 > 100 µM | SK-OV-3 > 100 µM | EKVX > 100 µM | K562 > 100 µM | SW-620 > 100 µM | OVCAR-3 60 µM | SNB-75 > 100 µM | OVCAR-8 > 100 µM | COLO 205 > 100 µM | SF-268 > 100 µM | SF-295 > 100 µM | 786-0 > 100 µM | UO-31 > 100 µM | IGROV-1 > 100 µM | HT-29 > 100 µM | HOP-92 > 100 µM | KM12 > 100 µM

CC1=CC(=O)NCCN1C
inactive: SR > 100 µM | HCT-116 > 100 µM | OVCAR-5 > 100 µM | SK-OV-3 > 100 µM | EKVX > 100 µM | K562 73.5 µM | SW-620 24.2 µM | OVCAR-3 > 100 µM | SNB-75 > 100 µM | OVCAR-8 > 100 µM | COLO 205 > 100 µM | SF-268 > 100 µM | SF-295 > 100 µM | 786-0 > 100 µM | UO-31 > 100 µM | IGROV-1 > 100 µM | HT-29 > 100 µM | HOP-92 > 100 µM | KM12 > 100 µM

c1ccc(NC[Si]23OCCN(CCO2)CCO3)cc1
inactive: SR > 100 µM | HCT-116 > 100 µM | OVCAR-5 > 100 µM | SK-OV-3 > 100 µM | EKVX > 100 µM | K562 > 100 µM | SW-620 > 100 µM | OVCAR-3 > 100 µM | SNB-75 > 100 µM | OVCAR-8 > 100 µM | COLO 205 > 100 µM | SF-268 > 100 µM | SF-295 > 100 µM | 786-0 > 100 µM | UO-31 > 100 µM | IGROV-1 > 100 µM | HT-29 > 100 µM | HOP-92 > 100 µM | KM12 > 100 µM
